From PubChem BioAssay AID2060338 (Molecular Pharmacology Branch, DTP, NCI, 2025)

Test system: 556581-035-R-J1-PDC spheroids with HUVEC/MSC, viability
Test: Anticancer human tumor 556581-035-R-J1-PDC patient-derived ovarian carcinoma cell line growth inhibition [IpAb]
Conditions: for IC50: curve of first compound; for viability, T/C: stronger effect = lower value
In short: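 Multi-cell spheroids of 60% tumour cells, 25% HUVEC and 15% MSC in ultra-low-attachment U-bottom wells, treated with agents combined with ipatasertib or abemaciclib. Half-log ranges top out near clinical Cmax, or 10 microM when Cmax is unknown.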

[1] = second compound 0.1 µM, first compound 0.0316 µM
[2] = second compound 0.1 µM, first compound 0.1 µM
[3] = second compound 0.316 µM, first compound 0.0316 µM
[4] = second compound 0.316 µM, first compound 0.1 µM
[5] = second compound 1 µM, first compound 0.0316 µM
[6] = second compound 1 µM, first compound 0.1 µM
[7] = second compound 0.1 µM, first compound 0.316 µM
[8] = second compound 0.1 µM, first compound 1 µM
[9] = second compound 0.1 µM, first compound 3.16 µM
[10] = second compound 0.1 µM, first compound 10 µM
[11] = second compound 0.316 µM, first compound 0.316 µM
[12] = second compound 0.316 µM, first compound 1 µM
[13] = second compound 0.316 µM, first compound 3.16 µM
[14] = second compound 0.316 µM, first compound 10 µM
[15] = second compound 1 µM, first compound 0.316 µM
[16] = second compound 1 µM, first compound 1 µM
[17] = second compound 1 µM, first compound 3.16 µM
[18] = second compound 1 µM, first compound 10 µM
[19] = second compound 3.16 µM, first compound 0.0316 µM
[20] = second compound 3.16 µM, first compound 0.1 µM
[21] = second compound 3.16 µM, first compound 0.316 µM
[22] = second compound 3.16 µM, first compound 1 µM
[23] = second compound 3.16 µM, first compound 3.16 µM
[24] = second compound 3.16 µM, first compound 10 µM
[25] = second compound 10 µM, first compound 0.0316 µM
[26] = second compound 10 µM, first compound 0.1 µM
[27] = second compound 10 µM, first compound 0.316 µM
[28] = second compound 10 µM, first compound 1 µM
[29] = second compound 10 µM, first compound 3.16 µM
[30] = second compound 10 µM, first compound 10 µM
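Further: spheroids exposed to compounds for 7 days before readout.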

Compound: CC(=O)c1c(C)c2cnc(Nc3ccc(N4CCNCC4)cn3)nc2n(C2CCCC2)c1=O + CC(C)NCC(C(=O)N1CCN(c2ncnc3c2C(C)CC3O)CC1)c1ccc(Cl)cc1
- IC50 (second compound 0.1 µM): > 0.3 µM
- IC50 (second compound 0.316 µM): > 0.3 µM
- IC50 (second compound 1 µM): > 0.3 µM
- IC50 (second compound 3.16 µM): > 0.3 µM
- IC50 (second compound 10 µM): < 0.000949 µM
- viability, T/C (second compound 0.1 µM, first compound 0.000949 µM): 98.2%
- viability, T/C (second compound 0.1 µM, first compound 0.003 µM): 115%
- viability, T/C (second compound 0.1 µM, first compound 0.00949 µM): 95.5%
- viability, T/C (second compound 0.1 µM, first compound 0.03 µM): 96%
- viability, T/C (second compound 0.1 µM, first compound 0.0949 µM): 99%
- viability, T/C (second compound 0.1 µM, first compound 0.3 µM): 87.2%
- viability, T/C (second compound 0.316 µM, first compound 0.000949 µM): 77.8%
- viability, T/C (second compound 0.316 µM, first compound 0.003 µM): 90.4%
- viability, T/C (second compound 0.316 µM, first compound 0.00949 µM): 85.9%
- viability, T/C (second compound 0.316 µM, first compound 0.03 µM): 76%
- viability, T/C (second compound 0.316 µM, first compound 0.0949 µM): 85.3%
- viability, T/C (second compound 0.316 µM, first compound 0.3 µM): 82.4%
- viability, T/C (second compound 1 µM, first compound 0.000949 µM): 59.9%
- viability, T/C (second compound 1 µM, first compound 0.003 µM): 65.7%
- viability, T/C (second compound 1 µM, first compound 0.00949 µM): 68.1%
- viability, T/C (second compound 1 µM, first compound 0.03 µM): 56.4%
- viability, T/C (second compound 1 µM, first compound 0.0949 µM): 65.3%
- viability, T/C (second compound 1 µM, first compound 0.3 µM): 63.5%
- viability, T/C (second compound 3.16 µM, first compound 0.000949 µM): 57.8%
- viability, T/C (second compound 3.16 µM, first compound 0.003 µM): 61.7%
- viability, T/C (second compound 3.16 µM, first compound 0.00949 µM): 49.9%
- viability, T/C (second compound 3.16 µM, first compound 0.03 µM): 55.4%
- viability, T/C (second compound 3.16 µM, first compound 0.0949 µM): 58.1%
- viability, T/C (second compound 3.16 µM, first compound 0.3 µM): 58%
- viability, T/C (second compound 10 µM, first compound 0.000949 µM): 47.9%
- viability, T/C (second compound 10 µM, first compound 0.003 µM): 47.4%
- viability, T/C (second compound 10 µM, first compound 0.00949 µM): 48.6%
- viability, T/C (second compound 10 µM, first compound 0.03 µM): 49.6%
- viability, T/C (second compound 10 µM, first compound 0.0949 µM): 45.8%
- viability, T/C (second compound 10 µM, first compound 0.3 µM): 48.4%

Compound: Cn1ncnc1[C@H]1c2n[nH]c(=O)c3cc(F)cc(c23)N[C@@H]1c1ccc(F)cc1 + CCN1CCN(Cc2ccc(Nc3ncc(F)c(-c4cc(F)c5nc(C)n(C(C)C)c5c4)n3)nc2)CC1
- IC50 (second compound 0.01 µM): > 0.1 µM
- IC50 (second compound 0.0316 µM): > 0.1 µM
- IC50 (second compound 0.1 µM): > 0.1 µM
- IC50 (second compound 0.316 µM): 0.0838 µM
- IC50 (second compound 1 µM): 0.00165 µM
- viability, T/C (second compound 0.01 µM, first compound 0.000316 µM): 80.6%
- viability, T/C (second compound 0.01 µM, first compound 0.001 µM): 107%
- viability, T/C (second compound 0.01 µM, first compound 0.00316 µM): 80.9%
- viability, T/C (second compound 0.01 µM, first compound 0.01 µM): 83.6%
- viability, T/C (second compound 0.01 µM, first compound 0.0316 µM): 84.1%
- viability, T/C (second compound 0.01 µM, first compound 0.1 µM): 63.7%
- viability, T/C (second compound 0.0316 µM, first compound 0.000316 µM): 84.9%
- viability, T/C (second compound 0.0316 µM, first compound 0.001 µM): 82.8%
- viability, T/C (second compound 0.0316 µM, first compound 0.00316 µM): 90.6%
- viability, T/C (second compound 0.0316 µM, first compound 0.01 µM): 83.2%
- viability, T/C (second compound 0.0316 µM, first compound 0.0316 µM): 61.3%
- viability, T/C (second compound 0.0316 µM, first compound 0.1 µM): 60%
- viability, T/C (second compound 0.1 µM, first compound 0.000316 µM): 67.7%
- viability, T/C (second compound 0.1 µM, first compound 0.001 µM): 81.3%
- viability, T/C (second compound 0.1 µM, first compound 0.00316 µM): 84.9%
- viability, T/C (second compound 0.1 µM, first compound 0.01 µM): 83.2%
- viability, T/C [1]: 63.1%
- viability, T/C [2]: 55.2%
- viability, T/C (second compound 0.316 µM, first compound 0.000316 µM): 70.8%
- viability, T/C (second compound 0.316 µM, first compound 0.001 µM): 77.8%
- viability, T/C (second compound 0.316 µM, first compound 0.00316 µM): 69.8%
- viability, T/C (second compound 0.316 µM, first compound 0.01 µM): 79.1%
- viability, T/C [3]: 59.2%
- viability, T/C [4]: 48.3%
- viability, T/C (second compound 1 µM, first compound 0.000316 µM): 51.5%
- viability, T/C (second compound 1 µM, first compound 0.001 µM): 59.2%
- viability, T/C (second compound 1 µM, first compound 0.00316 µM): 43.1%
- viability, T/C (second compound 1 µM, first compound 0.01 µM): 37.3%
- viability, T/C [5]: 41.9%
- viability, T/C [6]: 44.4%

Compound: C=CC(=O)N1CCN(c2nc(=O)n(-c3c(C)ccnc3C(C)C)c3nc(-c4c(O)cccc4F)c(F)cc23)C(C)C1 (stereo not given) + CC(C)NCC(C(=O)N1CCN(c2ncnc3c2C(C)CC3O)CC1)c1ccc(Cl)cc1
- IC50 (second compound 0.1 µM): 5.38 µM
- IC50 (second compound 0.316 µM): 6.53 µM
- IC50 (second compound 1 µM): 4.02 µM
- IC50 (second compound 3.16 µM): 1.79 µM
- IC50 (second compound 10 µM): < 0.0316 µM
- viability, T/C [1]: 99.9%
- viability, T/C [2]: 108%
- viability, T/C [7]: 103%
- viability, T/C [8]: 111%
- viability, T/C [9]: 68.6%
- viability, T/C [10]: 28.3%
- viability, T/C [3]: 79.8%
- viability, T/C [4]: 79.1%
- viability, T/C [11]: 74%
- viability, T/C [12]: 85.1%
- viability, T/C [13]: 73.4%
- viability, T/C [14]: 35.4%
- viability, T/C [5]: 74.3%
- viability, T/C [6]: 65.6%
- viability, T/C [15]: 59.8%
- viability, T/C [16]: 64%
- viability, T/C [17]: 57%
- viability, T/C [18]: 28.4%
- viability, T/C [19]: 54.5%
- viability, T/C [20]: 54.5%
- viability, T/C [21]: 52.6%
- viability, T/C [22]: 47.9%
- viability, T/C [23]: 48.9%
- viability, T/C [24]: 21.8%
- viability, T/C [25]: 44.6%
- viability, T/C [26]: 48.2%
- viability, T/C [27]: 45.5%
- viability, T/C [28]: 48.5%
- viability, T/C [29]: 34.9%
- viability, T/C [30]: 13.5%

Compound: CC1(C)CCC(CN2CCN(c3ccc(C(=O)NS(=O)(=O)c4ccc(NCC5CCOCC5)c([N+](=O)[O-])c4)c(Oc4cnc5[nH]ccc5c4)c3)CC2)=C(c2ccc(Cl)cc2)C1 + CC(C)NCC(C(=O)N1CCN(c2ncnc3c2C(C)CC3O)CC1)c1ccc(Cl)cc1
- IC50 (second compound 0.1 µM): 6.75 µM
- IC50 (second compound 0.316 µM): 5.54 µM
- IC50 (second compound 1 µM): 3.81 µM
- IC50 (second compound 3.16 µM): 3.55 µM
- IC50 (second compound 10 µM): < 0.0316 µM
- viability, T/C [1]: 101%
- viability, T/C [2]: 90.5%
- viability, T/C [7]: 87.8%
- viability, T/C [8]: 104%
- viability, T/C [9]: 94.1%
- viability, T/C [10]: 27.1%
- viability, T/C [3]: 87.4%
- viability, T/C [4]: 76.7%
- viability, T/C [11]: 87.3%
- viability, T/C [12]: 76.1%
- viability, T/C [13]: 75%
- viability, T/C [14]: 24%
- viability, T/C [5]: 71.6%
- viability, T/C [6]: 76%
- viability, T/C [15]: 66.2%
- viability, T/C [16]: 64.8%
- viability, T/C [17]: 58.1%
- viability, T/C [18]: 18.2%
- viability, T/C [19]: 57.2%
- viability, T/C [20]: 62.3%
- viability, T/C [21]: 58.4%
- viability, T/C [22]: 51.7%
- viability, T/C [23]: 54.4%
- viability, T/C [24]: 17.7%
- viability, T/C [25]: 47.7%
- viability, T/C [26]: 44.6%
- viability, T/C [27]: 44.5%
- viability, T/C [28]: 48.1%
- viability, T/C [29]: 42.7%
- viability, T/C [30]: 4.35%
